Data on two substances can be found in article PMC12304869 (Obesity (Silver Spring, Md.), 2025).

For data set [1] the following is noted: cited from earlier work.
The conditions of data set [2]: cited from earlier work. This is another data set of the same source.
The format of data set [3] is in vivo, male Sprague Dawley rats. The following applies: DIO rats.
A short description of data set [4]: DIO rats: body weight during daily s.c. semaglutide. The settings on record: n = 9. The class given is in vivo, male Sprague Dawley rats.
Data set [5] can be described thus: Phase 2 part 2: pharmacodynamics. The following applies: part 2b. Format: in vivo, human.

For the substance “PYY3‐36: active, Y2‐selective cleaved form of the hormone peptide YY”, in data set [1], the “half‐life (t1/2)” value is “roughly 10 min”. Moreover, the “weight loss after 12 weeks of treatment” value in data set [2] (intranasal, 200‐μg dose, participants with obesity, placebo −2.8 kg) is -3.7 kg. Also, the “treatment discontinuation due to nausea and vomiting” value in data set [2] (phase 1, intranasal 600 μg) is reported as “a majority of participants receiving 600 μg discontinued treatment”.
As for semaglutide, the “cumulative food intake from day 1 to 26, mean (SD)” value in data set [3] (vehicle + 30 nmol/kg semaglutide) is 389 (53) g. In addition, in data set [3] (vehicle + 30 nmol/kg semaglutide daily s.c., n = 9), the “mean body weight change after 26 days, mean (SD)” value is listed as −12.5% (3.4%). Also, the results for the “body weight loss after 26 days of treatment, mean (SD)” value in data set [4] (semaglutide 3 nmol/kg daily s.c.), in data set [4] (semaglutide 30 nmol/kg daily s.c.) and in data set [4] (semaglutide 100 nmol/kg daily s.c.) were −8.8% (2.9%), −14.2% (3.0%) and −17.4% (5.7%), respectively. For the same substance, the “change in body weight from baseline (week 32) to EOT (week 48)” value in data set [5] (placebo + semaglutide 2.4 mg weekly, ANCOVA estimate, FAS) is given as −3.1%. Besides, the “change in body weight from baseline to EOT” value in data set [5] (placebo + semaglutide 2.4 mg) was -2.2 kg. Besides, in data set [2] (semaglutide 2.4 mg alone, over 68 weeks), the weight loss is listed as 14.9%.
